In patent US20230233690A1, “ANDROGEN RECEPTOR PROTEIN DEGRADERS” (THE REGENTS OF THE UNIVERSITY OF MICHIGAN, priority 2020, published 2023):

Target: T1, AR protein (Homo sapiens, UniProt P10275)
T1 construct: endogenous in cells; host or cells: VCaP
T1 sequence (P10275 1-920): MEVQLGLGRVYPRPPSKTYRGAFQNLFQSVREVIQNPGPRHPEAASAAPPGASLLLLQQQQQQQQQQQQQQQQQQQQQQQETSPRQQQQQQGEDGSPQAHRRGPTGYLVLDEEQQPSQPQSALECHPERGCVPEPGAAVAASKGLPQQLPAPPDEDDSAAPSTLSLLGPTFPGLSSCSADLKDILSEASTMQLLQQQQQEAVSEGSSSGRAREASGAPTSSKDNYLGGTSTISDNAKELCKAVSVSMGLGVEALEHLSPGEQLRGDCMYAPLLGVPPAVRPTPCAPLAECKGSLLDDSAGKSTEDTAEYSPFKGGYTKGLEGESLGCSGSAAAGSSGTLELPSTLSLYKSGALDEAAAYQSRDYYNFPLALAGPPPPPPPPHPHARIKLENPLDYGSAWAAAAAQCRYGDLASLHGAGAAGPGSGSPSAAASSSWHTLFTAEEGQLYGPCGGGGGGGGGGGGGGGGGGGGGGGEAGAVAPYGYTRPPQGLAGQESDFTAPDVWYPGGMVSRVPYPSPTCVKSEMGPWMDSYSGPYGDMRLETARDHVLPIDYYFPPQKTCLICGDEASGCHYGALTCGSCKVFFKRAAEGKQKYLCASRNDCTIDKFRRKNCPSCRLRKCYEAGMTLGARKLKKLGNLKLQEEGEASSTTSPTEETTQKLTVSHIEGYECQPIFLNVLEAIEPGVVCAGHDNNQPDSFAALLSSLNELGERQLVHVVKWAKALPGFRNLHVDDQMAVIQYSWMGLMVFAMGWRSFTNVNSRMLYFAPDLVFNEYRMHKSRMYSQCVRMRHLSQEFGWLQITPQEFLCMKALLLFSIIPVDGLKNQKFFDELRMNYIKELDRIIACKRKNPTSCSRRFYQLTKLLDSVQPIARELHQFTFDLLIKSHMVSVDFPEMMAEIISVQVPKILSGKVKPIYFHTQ
Assay: Western blotting of AR protein degradation in VCaP cells
Assay type: cell-based
Details: for AR protein degradation VCap 10 nM / AR protein degradation VCap 100 nM: 24 hr treatment
Experimental: The treated cells were lysed with RIPA buffer. […] GAPDH was used as a loading control.
Bands were quantified with ImageJ software. The relative numbers of each band obtained from normalization with its corresponding GAPDH level were compared with Prism 8 software. The DC50 values were produced from Prism 8, and the DC90 values were calculated with an equation=Bottom+(Top−Bottom)/(1+10^((Log EC50−X)*HillSlope) based on DC50 and Hillslope values.

Row | SMILES | % AR protein degradation in VCaP Cells (0.001 μM) [%] | % AR protein degradation in VCaP Cells (0.01 μM) [%] | % AR protein degradation in VCaP Cells (0.1 μM) [%] | % AR protein degradation in VCaP Cells (1 μM) [%] | AR protein degradation VCap 10 nM | AR protein degradation VCap 100 nM
1 | N#Cc1ccc(O[C@H]2CC[C@H](Nc3ccc(C(=O)N4CCN(C5CCN(c6ccc7c(c6)C(=O)N(C6CCC(=O)NC6=O)C7=O)CC5)CC4)cc3)CC2)cc1Cl (some centres unmarked) [Cpd. No. 12] | – | – | – | – | C (>10% degradation but <50% (24 hr treatment)) | A (>90% degradation (24 hr treatment))
2 | CN(c1ccc(C#N)c(Cl)c1)C1CCC(NC(=O)c2ccc(C#CC3CCN(C4CCN(c5ccc6c(c5)C(=O)N(C5CCC(=O)NC5=O)C6=O)CC4)CC3)cc2)CC1 (centres unmarked) [compound 32] | – | – | – | – | A (>90% degradation (24 hr treatment)) | A (>90% degradation (24 hr treatment))
3 | N#Cc1ccc(O[C@H]2CC[C@H](NC(=O)c3ccc(NCCCCNc4ccc5c(c4)C(=O)N(C4CCC(=O)NC4=O)C5=O)cc3)CC2)cc1Cl (some centres unmarked) [compound 210, N-((1r,4r)-4-(3-chloro-4-cyanophenoxy)cyclohexyl)-4-((4-((2-(2,6-dioxopiperidin-3-yl)-1,3-dioxoisoindolin-5-yl)amino)butyl)amino)benzamide] | 43 | 70 | 55 | 38 | – | –
4 | CN(c1ccc(C#N)c(Cl)c1)[C@H]1CC[C@H](NC(=O)c2ccc(N3CCN(C4CN(c5ccc6c(c5)C(=O)N(C5CCC(=O)NC5=O)C6=O)C4)CC3)cc2)CC1 (some centres unmarked) [Cpd. No. 31, N-((1r,4r)-4-((3-chloro-4-cyanophenyl)(methyl)amino)cyclohexyl)-4-(4-(1-(2-(2,6-dioxopiperidin-3-yl)-1,3-dioxoisoindolin-5-yl)azetidin-3-yl)piperazin-1-yl)benzamide] | – | – | – | – | A (>90% degradation (24 hr treatment)) | A (>90% degradation (24 hr treatment))
5 | N#Cc1ccc(O[C@H]2CC[C@H](NC(=O)c3ccc(N4CCN(C5CN(c6ccc7c(c6)C(=O)N(C6CCC(=O)NC6=O)C7=O)C5)CC4)cc3)CC2)cc1Cl (some centres unmarked) [Cpd. No. 22] | – | – | – | – | A (>90% degradation (24 hr treatment)) | A (>90% degradation (24 hr treatment))
6 | N#Cc1ccc(N[C@H]2CC[C@H](NC(=O)c3ccc(N4CCN(CC5CCN(c6ccc7c(c6)C(=O)N(C6CCC(=O)NC6=O)C7=O)CC5)CC4)cc3)CC2)cc1Cl (some centres unmarked) [compound 27] | – | – | – | – | A (>90% degradation (24 hr treatment)) | A (>90% degradation (24 hr treatment))
7 | N#Cc1ccc(O[C@H]2CC[C@H](NC(=O)c3ccc(NCCCCCCNc4ccc5c(c4)C(=O)N(C4CCC(=O)NC4=O)C5=O)cc3)CC2)cc1Cl (some centres unmarked) [compound 212, N-((1r,4r)-4-(3-chloro-4-cyanophenoxy)cyclohexyl)-4-((6-((2-(2,6-dioxopiperidin-3-yl)-1,3-dioxoisoindolin-5-yl)amino)hexyl)amino)benzamide] | 25 | 70 | 86 | 82 | – | –

The next lines start with results.

Row | % AR protein degradation in VCaP Cells (0.001 μM) [%] | % AR protein degradation in VCaP Cells (0.01 μM) [%] | % AR protein degradation in VCaP Cells (0.1 μM) [%] | % AR protein degradation in VCaP Cells (1 μM) [%] | SMILES | AR protein degradation VCap 10 nM | AR protein degradation VCap 100 nM
8 | 2 | 3 | 23 | 18 | N#Cc1ccc(O[C@H]2CC[C@H](NC(=O)c3ccc(N4CCC(N5CCN(c6ccc7c(c6)C(=O)N(C6CCC(=O)NC6=O)C7=O)CC5)CC4)cc3)C2)cc1Cl (stereo partly drawn) [compound 226, N-((1S,3S)-3-(3-chloro-4-cyanophenoxy)cyclopentyl)-4-(4-(4-(2-(2,6-dioxopiperidin-3-yl)-1,3-dioxoisoindolin-5-yl)piperazin-1-yl)piperidin-1-yl)benzamide] | – | –
9 | 38 | 79 | 85 | 86 | N#Cc1ccc(O[C@H]2CC[C@H](NC(=O)c3ccc(N4CCN(CC5CN(c6ccc7c(c6)C(=O)N(C6CCC(=O)NC6=O)C7=O)C5)CC4)cc3)CC2)cc1Cl (some centres unmarked) [compound 224, N-((1r,4r)-4-(3-chloro-4-cyanophenoxy)cyclohexyl)-4-(4-((1-(2-(2,6-dioxopiperidin-3-yl)-1,3-dioxoisoindolin-5-yl)azetidin-3-yl)methyl)piperazin-1-yl)benzamide] | – | –
